What follows are compounds tested against JAK1 (Homo sapiens, UniProt P23458) (assay: Biochemical Kinase Assay (JAK), 33P-ATP filter-binding). Details: Biochemical Kinase Inhibition Assay; potency level of IC50; read-out: JAK1 (range).
Sequence of JAK1 (P23458 whole entry, species assumed): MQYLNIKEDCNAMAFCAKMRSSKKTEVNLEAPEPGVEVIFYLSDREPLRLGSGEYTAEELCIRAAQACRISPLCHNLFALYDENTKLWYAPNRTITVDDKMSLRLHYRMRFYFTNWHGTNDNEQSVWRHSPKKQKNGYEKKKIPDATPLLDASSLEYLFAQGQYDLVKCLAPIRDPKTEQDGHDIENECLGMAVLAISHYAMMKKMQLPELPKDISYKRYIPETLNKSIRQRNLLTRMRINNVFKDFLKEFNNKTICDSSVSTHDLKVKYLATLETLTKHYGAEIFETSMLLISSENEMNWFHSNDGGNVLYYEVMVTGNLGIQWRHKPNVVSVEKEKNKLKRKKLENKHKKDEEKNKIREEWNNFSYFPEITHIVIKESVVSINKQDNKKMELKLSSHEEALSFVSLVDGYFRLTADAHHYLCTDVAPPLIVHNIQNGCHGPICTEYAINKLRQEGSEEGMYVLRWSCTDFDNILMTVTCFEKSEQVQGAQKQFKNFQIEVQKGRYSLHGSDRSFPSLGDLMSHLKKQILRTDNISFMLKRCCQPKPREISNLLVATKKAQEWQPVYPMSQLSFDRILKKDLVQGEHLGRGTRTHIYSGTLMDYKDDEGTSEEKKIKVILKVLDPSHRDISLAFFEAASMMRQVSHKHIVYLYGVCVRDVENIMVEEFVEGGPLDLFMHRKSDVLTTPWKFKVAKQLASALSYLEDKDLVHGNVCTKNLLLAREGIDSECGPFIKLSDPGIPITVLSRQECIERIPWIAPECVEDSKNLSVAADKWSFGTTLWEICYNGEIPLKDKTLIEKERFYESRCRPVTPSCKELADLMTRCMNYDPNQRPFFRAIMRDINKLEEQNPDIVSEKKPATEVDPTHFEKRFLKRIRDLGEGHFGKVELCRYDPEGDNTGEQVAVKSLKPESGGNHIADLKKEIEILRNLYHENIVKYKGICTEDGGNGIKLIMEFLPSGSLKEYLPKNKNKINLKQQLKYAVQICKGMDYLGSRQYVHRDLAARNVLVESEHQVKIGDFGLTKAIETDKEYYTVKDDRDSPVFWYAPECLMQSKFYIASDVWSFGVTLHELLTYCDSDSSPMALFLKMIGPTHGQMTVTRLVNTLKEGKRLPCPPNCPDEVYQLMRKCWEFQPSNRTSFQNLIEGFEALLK
Procedure, shortened: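 Radiometric filter-binding with 33P-ATP in pH 7.5 Hepes buffer with 10 mM MgCl2 and 1% DMSO. Compound preincubated with kinase and substrate 20 min at room temperature, reaction run 2 h at room temperature, spotted on P81 paper to give IC50.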
`CCC1=CB(O)Oc2ccc(Nc3nn([C@@H]4COCC[C@H]4C#N)cc3C(N)=O)cc21` (relative stereo) [Example 33, 1-(trans-4-cyanotetrahydro-2H-pyran-3-yl)-3-[(4-ethyl-2-hydroxy-1,2-benzoxaborinin-6-yl)amino]pyrazole-4-carboxamide] was tested, and the IC50 was less than 10 nM. With `N#CC1CCOCC1n1cc(C(N)=O)c(Nc2ccc3c(c2)COB3O)n1` (stereo not drawn) [Example 41, 1-(trans-4-cyanotetrahydro-2H-pyran-3-yl)-3-((1-hydroxy-1,3-dihydrobenzo[c][1,2]oxaborol-5-yl)amino)-1H-pyrazole-4-carboxamide] the IC50 was less than 10 nM. Work on `CC(C)C1=CB(O)Oc2ccc(Nc3nn(C4COCCC4C#N)cc3C(N)=O)cc21` (stereo not drawn) [Example 30, 1-[trans-4-cyanotetrahydro-2H-pyran-3-yl]-3-[(2-hydroxy-4-isopropyl-1,2-benzoxaborinin-6-yl)amino]pyrazole-4-carboxamide] yielded an IC50 of less than 10 nM. Work on `CC1=C(C)c2cc(Nc3nn([C@@H]4CCCC[C@H]4C#N)cc3C(N)=O)cc(C)c2OB1O` (relative stereo) [Example 25, 1-(trans-2-cyanocyclohexyl)-3-[(2-hydroxy-3,4,8-trimethyl-1,2-benzoxaborinin-6-yl)amino]pyrazole-4-carboxamide] yielded an IC50 of 10 to 50 nM. With `CC1=Cc2cc(Nc3nn([C@@H]4CCC[C@H]4C#N)cc3C(N)=O)cc(F)c2OB1O` (single isomer, unassigned) [Example 45a, 1-[trans-2-cyanocyclopentyl]-3-[(8-fluoro-2-hydroxy-3-methyl-1,2-benzoxaborinin-6-yl)amino]pyrazole-4-carboxamide] the IC50 was less than 10 nM. Work on `N#C[C@@H]1CCOC[C@H]1n1cc(C(N)=O)c(Nc2ccc3c(c2)C=CB(O)O3)n1` (single isomer, unassigned) [Example 51b, 1-[trans-4-cyanotetrahydro-2H-pyran-3-yl]-3-[(2-hydroxy-1,2-benzoxaborinin-6-yl)amino]pyrazole-4-carboxamide] yielded an IC50 of less than 10 nM. With `N#C[C@@H]1CCOC[C@H]1n1cc(C(N)=O)c(Nc2ccc3c(c2)CCOB3O)n1` (relative stereo) [Example 7, 1-(trans-4-cyanotetrahydro-2H-pyran-3-yl)-3-((1-hydroxy-3,4-dihydro-1H-benzo[c][1,2]oxaborinin-6-yl)amino)-1H-pyrazole-4-carboxamide] the IC50 was less than 10 nM. Work on `N#CC1CCOCC1n1cc(C(N)=O)c(Nc2cc(F)c3c(c2)C=CB(O)O3)n1` (stereo not drawn) [Example 44, 1-[trans-4-cyanotetrahydro-2H-pyran-3-yl]-3-[(8-fluoro-2-hydroxy-1,2-benzoxaborinin-6-yl)amino]pyrazole-4-carboxamide] yielded an IC50 of less than 10 nM. `CCC1=C(CC)c2cc(Nc3nn([C@@H]4COCC[C@H]4C#N)cc3C(N)=O)ccc2OB1O` (relative stereo) [Example 39, 1-(trans-4-cyanotetrahydro-2H-pyran-3-yl)-3-[(3,4-diethyl-2-hydroxy-1,2-benzoxaborinin-6-yl)amino]pyrazole-4-carboxamide] gave an IC50 of less than 10 nM. In the case of `CC1=Cc2cc(Nc3nn([C@@H]4CCCC[C@H]4C#N)cc3C(N)=O)ccc2OB1O` (relative stereo) [Example 26, 1-[trans-2-cyanocyclohexyl]-3-[(2-hydroxy-3-methyl-1,2-benzoxaborinin-6-yl)amino]pyrazole-4-carboxamide], the IC50 is reported as less than 10 nM. In the case of `N#C[C@@H]1CCOC[C@H]1n1cc(C(N)=O)c(Nc2ccc3c(c2)C2CC2B(O)O3)n1` (relative stereo) [Example 57, 1-(trans-4-cyanotetrahydro-2H-pyran-3-yl)-3-[(2-hydroxy-1a,7b-dihydro-1H-cyclopropa[c][1,2]benzoxaborinin-6-yl)amino]pyrazole-4-carboxamide], the IC50 is reported as less than 10 nM. Work on `CC1=Cc2cc(Nc3nn([C@@H]4CCC[C@H]4C#N)cc3C(N)=O)cc(F)c2OB1O` (relative stereo) [Example 15, 1-(trans-2-cyanocyclopentyl)-3-[(8-fluoro-2-hydroxy-3-methyl-1,2-benzoxaborinin-6-yl)amino]pyrazole-4-carboxamide] yielded an IC50 of less than 10 nM. Work on `N#CC1CCOCC1n1cc(C(N)=O)c(Nc2ccc3c(c2)B(O)OC3)n1` (stereo not drawn) [Example 16, 1-(trans-4-cyanotetrahydro-2H-pyran-3-yl)-3-((1-hydroxy-1,3-dihydrobenzo[c][1,2]oxaborol-6-yl)amino)-1H-pyrazole-4-carboxamide] yielded an IC50 of less than 10 nM. Work on `Cc1c(Nc2nn([C@@H]3COCC[C@H]3C#N)cc2C(N)=O)ccc2c1C=CB(O)O2` (single isomer, unassigned) [Example 17a, 1-[trans-4-cyanotetrahydro-2H-pyran-3-yl]-3-[(2-hydroxy-5-methyl-1,2-benzoxaborinin-6-yl)amino]pyrazole-4-carboxamide] yielded an IC50 greater than 50 nM. Compound `N#C[C@@H]1CCOC[C@H]1n1cc(C(N)=O)c(Nc2cc3c(c(C4CC4)c2)OB(O)C=C3)n1` (single isomer, unassigned) [Example 55a, 1-[trans-4-cyanotetrahydro-2H-pyran-3-yl]-3-[(8-cyclopropyl-2-hydroxy-1,2-benzoxaborinin-6-yl)amino]pyrazole-4-carboxamide] has an IC50 of less than 10 nM. Compound `N#C[C@@H]1CCOC[C@H]1n1cc(C(N)=O)c(Nc2cc(F)c3c(c2)COB3O)n1` (single isomer, unassigned) [Example 38a, 1-[trans-4-cyanotetrahydro-2H-pyran-3-yl]-3-[(7-fluoro-1-hydroxy-3H-2,1-benzoxaborol-5-yl)amino]pyrazole-4-carboxamide] has an IC50 of 10 to 50 nM. With `CC(C)C1=CB(O)Oc2ccc(Nc3nn([C@@H]4COCC[C@H]4C#N)cc3C(N)=O)cc21` (single isomer, unassigned) [Example 30a, 1-[trans-4-cyanotetrahydro-2H-pyran-3-yl]-3-[(2-hydroxy-4-isopropyl-1,2-benzoxaborinin-6-yl)amino]pyrazole-4-carboxamide] the IC50 was greater than 50 nM. `N#C[C@@H]1CCOC[C@H]1n1cc(C(N)=O)c(Nc2cc(Cl)c3c(c2)COB3O)n1` (single isomer, unassigned) [Example 52b, 3-((7-chloro-1-hydroxy-1,3-dihydrobenzo[c][1,2]oxaborol-5-yl)amino)-1-(trans-4-cyanotetrahydro-2H-pyran-3-yl)-1H-pyrazole-4-carboxamide] showed an IC50 of less than 10 nM. For `Cc1cc(Nc2nn([C@@H]3COCC[C@H]3C#N)cc2C(N)=O)cc2c1OB(O)C=C2` (single isomer, unassigned) [Example 27a, 1-[trans-4-cyanotetrahydropyran-3-yl]-3-[(2-hydroxy-8-methyl-1,2-benzoxaborinin-6-yl)amino]pyrazole-4-carboxamide], the IC50 was 10 to 50 nM. Work on `CC1=CB(O)Oc2c(C)cc(Nc3nn([C@@H]4COCC[C@H]4C#N)cc3C(N)=O)cc21` (single isomer, unassigned) [Example 47b, 1-[trans-4-cyanotetrahydro-2H-pyran-3-yl]-3-[(2-hydroxy-4,8-dimethyl-1,2-benzoxaborinin-6-yl)amino]pyrazole-4-carboxamide] yielded an IC50 of less than 10 nM.
